The assay deals with Aurora kinase B (Homo sapiens) (UniProt Q96GD4). The experiment in a line: AURKB enzyme activity inhibitors – biochemical, scintillation, dry powder, set 2, counter-screen for STK33 inhibitor project, dose response (AID 588756). The conditions noted are these: gamma-32P-ATP (ATP at Km), P30 filter scintillation.

Each structure is given as a SMILES string. Active and inactive are the calls of the source.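 Rule for the calls: active = a falling-signal curve whose fitted AC50 is at most ten times the top valid dose; inconclusive = flat fit with 30 to 70% inhibition, or a poor fit; inactive = the rest.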

Chain of Aurora kinase B (Homo sapiens) (Q96GD4 whole entry, looked up): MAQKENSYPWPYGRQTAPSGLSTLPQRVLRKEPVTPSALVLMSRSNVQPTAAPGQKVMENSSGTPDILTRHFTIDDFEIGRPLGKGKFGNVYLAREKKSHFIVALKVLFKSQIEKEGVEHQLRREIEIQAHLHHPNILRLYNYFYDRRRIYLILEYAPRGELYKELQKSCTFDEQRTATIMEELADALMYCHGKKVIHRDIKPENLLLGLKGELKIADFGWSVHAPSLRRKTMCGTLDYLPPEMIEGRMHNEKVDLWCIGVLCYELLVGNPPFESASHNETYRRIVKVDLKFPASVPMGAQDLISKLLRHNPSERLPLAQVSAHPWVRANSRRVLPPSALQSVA

As for `COc1cc(/C=C2\S/C(=N/c3ccccn3)NC2=O)ccc1O`, the “activity change, negative = inhibition” value (at 10 µM (top of the series)) was “inactive”.
As to `COc1cc(/C=C2\SC(=NCc3ccccc3)NC2=O)ccc1O`, the half-maximal activity concentration (AC50) is 2.92 µM.
On the same count and under the same terms, the result for `COc1cc(/C=C2\SC(N)=NC2=O)ccc1O` reads > 20 µM (inactive).
Regarding `COc1cc(/C=C2\SC(=Nc3ccccc3F)NC2=O)ccc1O`, the AC50 is > 20 µM (inactive).
Same read-out and setting: the result for `COc1cc(/C=C2\SC(=Nc3ccccc3Cl)NC2=O)ccc1O` reads 10.1 µM.

The values above are taken from PubChem BioAssay AID588756 (Broad Institute, 2011).
